Reference: PMC11070930 (The Biochemical journal, 2024)
Where two headings read alike, the source gives them in different places. Blank lines part the entries; values can stand above or below the molecule they belong to.

Legend:
PARP1 [1] = target: T1, PARP1 (Homo sapiens, UniProt P09874); settings: allosteric-based classification reported earlier; cited from earlier work
PARP1 [2] = target: T1, PARP1; test: PARP1 enzyme inhibition assay; format: biochemical; settings: for decrease in PARP1 inhibition potency compared to veliparib: relative to veliparib
PARP1 WT [3] = target: T2, PARP1 WT (UniProt P09874 1-1014); test: fluorescence polarization
PARP1 WT [4] = target: T2, PARP1 WT; test: fluorescence polarization; remark: listed apart in the source
PARP1 WT [5] = target: T2, PARP1 WT; test: fluorescence polarization; remark: listed apart in the source
PARP1 WT [6] = target: T2, PARP1 WT; test: fluorescence polarization; remark: listed apart in the source
PARP1 WT [7] = target: T2, PARP1 WT; test: fluorescence polarization; remark: listed apart in the source
PARP1 WT [8] = target: T2, PARP1 WT; test: fluorescence polarization; remark: listed apart in the source
PARP1 WT [9] = target: T2, PARP1 WT; test: fluorescence polarization; remark: listed apart in the source
PARP1 WT [10] = target: T2, PARP1 WT; test: fluorescence polarization; remark: listed apart in the source
PARP1 WT [11] = target: T2, PARP1 WT; test: fluorescence polarization; remark: listed apart in the source
PARP1 WT [12] = target: T2, PARP1 WT; test: fluorescence polarization; remark: listed apart in the source
PARP1 WT [13] = target: T2, PARP1 WT; test: fluorescence polarization; remark: listed apart in the source
PARP1 WT [14] = target: T2, PARP1 WT; test: fluorescence polarization; remark: listed apart in the source
PARP1 WT [15] = target: T2, PARP1 WT; test: fluorescence polarization; remark: listed apart in the source
[16] = target: PARP1 Zn1-Zn3 ΔZn2;PARP1 WGR-CAT ΔVE (Homo sapiens?;Homo sapiens?, UniProt P09874;P09874 1-366;518-1014, del97-206|del687-688); test: X-ray crystallography
[17] = read-out: PARP1 IC50, 10-point concentration-response curve, average of at least two independent experiments

Molecule: NC(=O)c1cccc2cn(-c3ccc([C@@H]4CCCNC4)cc3)nc12 [niraparib]
allosteric PARPi type (PARP1 [1]): Type III

Molecule: C[C@]1(c2nc3c(C(N)=O)cccc3[nH]2)CCCN1 [Veliparib]
allosteric PARPi type (PARP1 [1]): Type III

Molecule: NC(=O)c1cccc([C@@H]2O[C@H](COP(=O)(O)OP(=O)(O)OC[C@H]3O[C@@H](n4cnc5c(N)ncnc54)[C@H](O)[C@@H]3O)[C@@H](O)[C@H]2O)c1 [BAD, benzamide adenine dinucleotide]
allosteric PARPi type (PARP1 [1]): Type I

Molecule: NC(=O)c1cccc2[nH]c(-c3cccc(C(=O)N4CCn5c(nnc5C(F)(F)F)C4)c3)nc12 [Compound 13, 2-(3-(3-(Trifluoromethyl)-5,6,7,8-tetrahydro-[1,2, 4]triazolo[4,3-a]pyrazine-7-carbonyl)phenyl)-1H-benzo[d]imidazole-4-carboxamide]
IC50 (PARP1 [2]; [17]): 25.4 nM

Molecule: CNCc1ccc(-c2[nH]c3cc(F)cc4c3c2CCNC4=O)cc1 [rucaparib]
allosteric PARPi type (PARP1 [1]): Type III

Molecule: Cl.Cl.Nc1ncnc2c1ncn2[C@@H]1O[C@H](C(=O)N2CCN(CC(=O)Nc3cccc4c3CNC4=O)CC2)[C@@H](O)[C@H]1O [EB-47]
allosteric PARPi type (PARP1 [1]): Type I

Molecule: NC(=O)c1cccc2[nH]c(-c3ccc(C(=O)N4CCn5c(nnc5C(F)(F)F)C4)cc3)nc12 [Compound 12, 2-(4-(3-(Trifluoromethyl)-5,6,7,8-tetrahydro-[1,2, 4]triazolo[4,3-a]pyrazine-7-carbonyl)phenyl)-1H-benzo[d]imidazole-4-carboxamide]
IC50 (PARP1 [2]; [17]): 25.4 nM

Molecule: NC(=O)c1cccc2[nH]c(-c3ccc(C(=O)N4CCN(c5ncccn5)CC4)cc3)nc12 [Compound 4, 2-(4-(4-(Pyrimidin-2-yl)piperazine-1-carbonyl)phenyl)-1H-benzo[d]imidazole-4-carboxamide]
IC50 (PARP1 [2]): 11.9 nM
decrease in PARP1 inhibition potency compared to veliparib (PARP1 [2]): approximately nine

B1: 18-bp DNA duplex (dsDNA)
DNA 1: GGGTTGCGGCCGCTTGGG
DNA 2: CCCAAGCGGCCGCAACCC
Kd (PARP1 WT [3]): 11.8 ± 4.7 nM
Kd (PARP1 WT [4]): 4.5 ± 1.7 nM
Kd (PARP1 WT [5]): 117 ± 16.8 nM
Kd (PARP1 WT [6]): 82.1 ± 1.8 nM
Kd (PARP1 WT [7]): 112 ± 31.2 nM
Kd (PARP1 WT [8]): 61.7 ± 25.3 nM
Kd (PARP1 WT [9]): 29 ± 5.2 nM
Kd (PARP1 WT [10]): 210 ± 25 nM
Kd (PARP1 WT [11]): 52.3 ± 3.2 nM
Kd (PARP1 WT [12]): 62.2 ± 14.6 nM
Kd (PARP1 WT [13]): 47.7 ± 5.4 nM
Kd (PARP1 WT [14]): 41.7 ± 11.4 nM
Kd (PARP1 WT [15]): 61.9 ± 14.4 nM

B2: 5-bp DNA duplex (dsDNA)
DNA 1: CGACG
DNA 2: CGTCG
binding result [16]: binds

The next lines start with results.

IC50 (PARP1 [2]): 121 nM
decrease in PARP1 inhibition potency compared to veliparib (PARP1 [2]): ~ 100 fold
Molecule: NC(=O)c1cccc2[nH]c(-c3cccc(C(=O)NCCc4nc5ccccc5[nH]4)c3)nc12 [Compound 11, 2-(3-((2-(1H-Benzo[d]imidazol-2-yl)ethyl)carbamoyl)phenyl)-1H-benzo[d]imidazole-4-carboxamide]

IC50 (PARP1 [2]): > 10 nM
inhibition at 0.01 µM (PARP1 [2]; read-out: PARP1 inhibition at 10 nM): 37%
Molecule: NC(=O)c1cccc2[nH]c(-c3ccc(C(=O)N4CCN(c5ncc(C(=O)O)cn5)CC4)cc3)nc12 [Compound 7, Sodium 2-(4-(4-(4-carbamoyl-1H-benzo[d]imidazol-2-yl)benzoyl)piperazin-1-yl)pyrimidine-5-carboxylate]

IC50 (PARP1 [2]): 2.8 nM
Molecule: COC(=O)c1cnc(N2CCN(C(=O)c3ccc(-c4nc5c(C(N)=O)cccc5[nH]4)cc3)CC2)nc1 [UKTT15 (6), Methyl 2-(4-(4-(4-carbamoyl-1H-benzo[d]imidazol-2-yl)benzoyl)piperazin-1-yl)pyrimidine-5-carboxylate]
allosteric PARPi type (PARP1 [1]): Type I

IC50 (PARP1 [2]): 8.9 nM
Molecule: NC(=O)c1cccc2[nH]c(-c3cccc(C(=O)N4CCN(c5ncccn5)CC4)c3)nc12 [Compound 5, 2-(3-(4-(Pyrimidin-2-yl)piperazine-1-carbonyl)phenyl)-1H-benzo[d]imidazole-4-carboxamide]

IC50 (PARP1 [2]): 17.3 nM
Molecule: Cc1cc(N)c(NC(=O)c2cccc(-c3nc4c(C(N)=O)cccc4[nH]3)c2)cc1C [Compound 14, 2-(3-((2-Amino-4,5-dimethylphenyl)carbamoyl)phenyl)-1H-benzo[d]imidazole-4-carboxamide]

IC50 (PARP1 [2]): 3.1 nM
Molecule: NC(=O)c1cccc2[nH]c(-c3ccc(C(=O)NCCc4nc5ccccc5[nH]4)cc3)nc12 [Compound 10, 2-(4-((2-(1H-Benzo[d]imidazol-2-yl)ethyl)carbamoyl)phenyl)-1H-benzo[d]imidazole-4-carboxamide]

IC50 (PARP1 [2]): 3.9 nM
Molecule: NC(=O)c1cccc2[nH]c(-c3cccc(C(=O)N4CCN(c5nc6ccccc6[nH]5)CC4)c3)nc12 [Compound 9, 2-(3-(4-(1H-Benzo[d]imidazol-2-yl)piperazine-1-carbonyl)phenyl)-1H-benzo[d]imidazole-4-carboxamide]

IC50 (PARP1 [2]): 6.2 nM
Molecule: NC(=O)c1cccc2[nH]c(-c3ccc(C(=O)N4CCN(c5nc6ccccc6[nH]5)CC4)cc3)nc12 [Compound 8, 2-(4-(4-(1H-Benzo[d]imidazol-2-yl)piperazine-1-carbonyl)phenyl)-1H-benzo[d]imidazole-4-carboxamide]
